Results reported in patent US11672786B2, “Methods of treating diseases associated with repeat instability” (The Hospital for Sick Children, priority 2016, dated 2023).

What was measured:
long (CAG)20 slip-out = test: in vitro repair assay by HeLa cell extracts, long (CAG)20 slip-out; assay type: biochemical, human
From the text: Panel A of […] is a schematic of the in vitro repair assay. Starting DNAs and repair products released the repeat-containing fragment, which is resolved on PAGE and assessed on a molar level by Southern blotting and densitometry. Repair of different DNA substrates containing a long (CAG)20 slip-out (Panel B of FIG. 3) long (CTG)20 slip-out (Panel C of FIG. 3), a single CAG slip-out (Panel D of FIG. 3) or a single G-T mismatch (Panel E of FIG. 3), in the absence or in the presence of NA. Slipped-DNA substrates were prepared from hybrids of (CAG)50●(CTG)30, (CAG)30●(CTG)50 or of (CAG)50●(CTG)49. Repair of the G-T mismatch reconstitutes a HindIII restriction site, as shown schematically. Graphs show percentage repair efficiencies to repaired product relative to all repeat-containing fragments in the lane, values are normalized to the NA-free efficiency. […]
To determine how the binding of NA to slipped DNA structures affects repair, a series of circular slipped heteroduplex substrates was made with an excess of repeats with a nick located either 5′ or 3′ of the slip-out (FIG. 3). […] All these substrates were processed in […] by HeLa extracts and then were assessed for repair. Repair products were analyzed by Southern blotting, probed for the repeat-containing fragment, and compared with starting material, which permitted quantitative assessment of repair efficiency at a molar level. […]

[1] = test system: CASK, HTT (normal allele), Mfd15 and TBP loci in HD fibroblasts; test: repeat-tract lengths of non-expanded loci in HD fibroblasts; assay type: cell-based, human
From the text: Scale bar represents 20 μm. […] The cell viability was estimated with WST-1 assays. Values represent the means of three independent measures±SD. […] Error bars indicate the SD of triplicate experiments. […] The dashed line indicates the peak CAG size. Allele lengths are grouped in bins spanning 10 repeats. More than 230 alleles were sized per group.
FIG. 12 are representative data showing ultra-sensitive small-pool PCR for the non-expanded CAG/CTG repeat length of CASK in HD primary fibroblast cells (Panel A of FIG. 12) and HT1080-(CAG)850 cells (Panel B of FIG. 12). […] Repeat lengths were analyzed by Agilent BioAnalyzer.
Genomic DNA was extracted from HT1080-(CAG)850 clones and HD primary fibroblasts using the Gentra Puregene Cell Kit (Qiagen, Valencia, Calif.). […] At least 50 alleles were analyzed for each of the three experiments (more than 150 alleles for a total study). […] For the histograms in FIGS. 4D, 4E, 10, 11, 5B, 5D, 5E, 14 and 15B, the Y-axis, “% of repeat population” was calculated by determining the proportion of >50 individual small-pool PCR reactions across the CAG repeat tract, that harbored a certain size of repeat product with a certain length. […] Length distributions were determined as follows: Small-pool PCR followed by Southern blot for analysis of CAG/CTG repeat length. […]

Q: What does the source list for naphthyridine-azaquinolone?
A: effect on repair of long (CAG)20 slip-outs (long (CAG)20 slip-out): specifically inhibits repair; length variation at CASK, HTT (normal allele), and Mfd15 loci ([1]; 40 days incubation with or without NA): Length variation was not observed; length distribution of non-mutant TBP repeats (38 and 34 repeats) ([1]; HD patient cells, 40 days): did not change the length distribution of the TBP repeats
